Measurements published in US20050059720A1, “Medicinal compositions for the prevention or treatment of cardiac failure” (SANKYO COMPANY, LIMITED, priority 2000, published 2005).

System: Ventricular Cells in the Area Adjacent to Infarction
Experiment: Suppression of hypertrophy of ventricular cells in the area adjacent to infarction (coronary artery ligation)
Assay type: in vivo, Wistar rats
Settings: rats, 4 weeks administration after coronary ligation; pravastatin 5 mg/kg/day, CS-866 2 mg/kg/day; normal 2,737, control 3,812

## CC[C@H](C)C(=O)O[C@H]1C[C@H](O)C=C2C=C[C@H](C)[C@H](CC[C@@H](O)C[C@@H](O)CC(=O)O)[C@H]21 [pravastatin, (+)-(3R,5R)-3,5-dihydroxy-7-[(1S,2S,6S,8S,8aR)-6-hydroxy-2-methyl-8-[(S)-2-methylbutyryloxy]-1,2,6,7,8,8a-hexahydro-1-naphthyl]heptanoic acid]
  Mass of cardiac muscle cells in adjacent area to the infarction: 3,053 μm^2
